In PMC12238238, “Identification of gut bacteria reductases that biotransform steroid hormones” (Nature Communications, 2025):

Tests used:
[1] = molecular target: T1, baiCD ([Clostridium] scindens, UniProt P19410); assay: LC-MS of products in E. coli expressing the gene; assay type: cell-based; details: whole E. coli cells, anaerobic, 1 mg/100 mL steroid, 48 h, 37 °C; product 5β-dihydroprogesterone
T1 construct: expressed in E. coli, whole-cell biotransformation
T1 sequence (P19410 1-639): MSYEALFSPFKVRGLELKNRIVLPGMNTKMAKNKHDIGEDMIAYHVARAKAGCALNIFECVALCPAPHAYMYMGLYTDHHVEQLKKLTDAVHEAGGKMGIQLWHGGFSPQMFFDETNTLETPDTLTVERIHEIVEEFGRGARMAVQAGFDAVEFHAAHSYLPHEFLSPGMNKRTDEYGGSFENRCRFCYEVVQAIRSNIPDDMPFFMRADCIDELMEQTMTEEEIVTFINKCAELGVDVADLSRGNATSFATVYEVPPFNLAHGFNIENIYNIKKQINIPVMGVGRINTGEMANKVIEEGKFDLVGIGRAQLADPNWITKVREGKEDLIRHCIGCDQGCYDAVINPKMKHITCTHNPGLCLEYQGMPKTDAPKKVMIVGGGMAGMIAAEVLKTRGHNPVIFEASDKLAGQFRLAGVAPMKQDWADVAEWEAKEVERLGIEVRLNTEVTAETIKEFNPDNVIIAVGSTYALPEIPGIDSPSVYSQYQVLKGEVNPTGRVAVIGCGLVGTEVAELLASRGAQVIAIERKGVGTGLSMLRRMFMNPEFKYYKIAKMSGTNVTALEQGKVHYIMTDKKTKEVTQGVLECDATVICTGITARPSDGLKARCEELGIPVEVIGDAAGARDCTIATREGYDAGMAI

[2] = molecular target: T2, ci2350 (Δ4-3-ketosteroid 5β-reductase); assay: isothermal titration calorimetry; assay type: binding, [Clostridium] innocuum; details: 0.1 M sodium phosphate, 0.2 M NaCl, 20 mM BME, 0.5 mM CHAPS, pH 6.5, 25 °C; independent model, single site
T2 construct: recombinant in E. coli, Ni HisTrap purified (pET28a/kanamycin); mutants assayed in E. coli cells

[3] = molecular target: T3, baiH ([Clostridium] scindens, UniProt P32370); assay: LC-MS of products in E. coli expressing the gene; assay type: cell-based; details: whole E. coli cells, anaerobic, 1 mg/100 mL steroid, 48 h, 37 °C; product progesterone
T3 construct: expressed in E. coli, whole-cell biotransformation
T3 sequence (P32370 1-661): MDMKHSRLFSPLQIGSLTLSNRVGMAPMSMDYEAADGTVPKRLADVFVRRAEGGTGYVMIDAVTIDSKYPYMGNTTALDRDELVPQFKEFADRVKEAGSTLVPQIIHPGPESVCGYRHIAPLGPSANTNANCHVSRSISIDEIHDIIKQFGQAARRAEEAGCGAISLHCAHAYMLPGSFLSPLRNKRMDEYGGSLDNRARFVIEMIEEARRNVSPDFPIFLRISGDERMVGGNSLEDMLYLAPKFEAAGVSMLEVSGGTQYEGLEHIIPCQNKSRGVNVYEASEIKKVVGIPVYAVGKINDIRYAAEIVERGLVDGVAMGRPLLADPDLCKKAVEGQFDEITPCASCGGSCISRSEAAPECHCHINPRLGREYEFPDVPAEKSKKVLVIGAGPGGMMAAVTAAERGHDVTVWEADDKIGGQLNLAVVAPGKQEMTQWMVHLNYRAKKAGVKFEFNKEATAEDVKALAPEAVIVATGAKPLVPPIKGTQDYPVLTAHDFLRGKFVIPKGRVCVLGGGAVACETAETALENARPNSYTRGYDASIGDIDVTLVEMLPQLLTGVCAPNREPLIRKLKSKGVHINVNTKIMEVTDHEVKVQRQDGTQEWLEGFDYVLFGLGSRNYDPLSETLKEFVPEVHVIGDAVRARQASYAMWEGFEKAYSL

[4] = molecular target: T4, dw0523 (3β-HSDH/I) (Dysosmobacter welbionis, UniProt A0A4D7AXI1); assay: LC-MS of products in E. coli expressing the gene; assay type: cell-based; details: whole E. coli cells, anaerobic, 1 mg/100 mL steroid, 48 h, 37 °C; product progesterone
T4 construct: gene EIO64_02590; expressed in E. coli, whole-cell biotransformation; separate (unfused) 3β-HSDH/I gene
T4 sequence (A0A4D7AXI1 1-497): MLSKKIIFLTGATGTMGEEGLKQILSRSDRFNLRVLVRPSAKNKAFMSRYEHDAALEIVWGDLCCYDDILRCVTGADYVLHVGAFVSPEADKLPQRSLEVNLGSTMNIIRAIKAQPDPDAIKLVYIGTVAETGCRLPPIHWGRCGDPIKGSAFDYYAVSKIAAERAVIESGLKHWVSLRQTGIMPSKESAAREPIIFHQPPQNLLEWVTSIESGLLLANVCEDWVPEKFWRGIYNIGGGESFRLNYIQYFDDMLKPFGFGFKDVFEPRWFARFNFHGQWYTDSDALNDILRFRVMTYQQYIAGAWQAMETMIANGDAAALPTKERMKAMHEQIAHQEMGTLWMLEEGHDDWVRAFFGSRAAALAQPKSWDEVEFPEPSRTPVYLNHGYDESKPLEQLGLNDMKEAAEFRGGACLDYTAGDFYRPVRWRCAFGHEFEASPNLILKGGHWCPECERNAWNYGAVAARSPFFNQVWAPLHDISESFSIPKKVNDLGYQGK

## CC(=O)[C@H]1CC[C@H]2[C@@H]3CCC4=CC(=O)CC[C@]4(C)[C@H]3CC[C@]12C [progesterone]
[1]
  LC-MS of products in E. coli expressing the gene: baiCD had limited, but detectable, reduction of progesterone
[2]
  Kd: 432 nM

## CC(=O)[C@H]1CC[C@H]2[C@@H]3C=CC4=CC(=O)CC[C@]4(C)[C@H]3CC[C@]12C [6-dehydroprogesterone]
[3]
  LC-MS of products in E. coli expressing the gene: only partial conversion of the substrate by C. scindens baiH
[2]
  Kd: 594 nM

## CC(=O)[C@H]1CC[C@H]2[C@@H]3CC=C4C[C@@H](O)CC[C@]4(C)[C@H]3CC[C@]12C [pregnenolone]
[4]
  LC-MS of products in E. coli expressing the gene: with dw0523 producing only progesterone

## C[C@]12CCC(=O)C=C1CC[C@@H]1[C@@H]2[C@@H](O)C[C@@]2(C)[C@H]1CC[C@]2(O)C(=O)CO [hydrocortisone]
[2]
  Kd: 668 nM

## C[C@]12CCC(=O)C=C1CC[C@@H]1[C@@H]2C(=O)C[C@@]2(C)[C@H]1CC[C@]2(O)C(=O)CO [cortisone]
[2]
  Kd: 759 nM
